{"source": "patent US9790351B2", "about": "“Fat-binding compositions” (Eastpond Laboratories Limited, priority 2010, dated 2017)", "key": {"[1]": {"test": "Phase-solubility study of binding constant (Higuchi et al.)", "settings": "in water, 1:1 complex", "source_text": "The resulting 1:1, molar ratio betanin/alpha-cyclodextrin inclusion complex was a red colored, free flowing powder containing 32% betanin by weight, as determined by visible spectrophotometry. […] N. Reilly, Wiley, New York, 1965. vol. 4. pp. 117-212, the complete disclosure of which is hereby incorporated by reference for all purposes. The binding constant of the complex was Kass=85-105 M^−1"}, "[2]": {"test": "Binding constants of flavorants, microcalorimetric method and GC flavorant retention", "source_text": "The tested compounds included those that are generally soluble or miscible in water. The complexes with the cyclodextrins were formed using methods corresponding to the two specifically described examples below involving apricot flavorant and banana flavorant.\nTwo types of methods were used to determine the apparent binding constants noted above. The “microcalorimetric” method was used as described in Lewis et al., “Thermodynamics of binding of guest molecules to alpha- and beta-cyclodextrins,” J. Chem. Soc. Perkin. Trans. 2, (15) pp. 2081-2085, 1973, the complete disclosure of which is hereby incorporated by reference for all purposes. Also, by measuring the flavorant retention in the inclusion complexes and the corresponding mechanical mixtures (identical composition except that linear dextrin is used in place of cyclodextrins) with gas chromatography, according to the method described by Reineccius et al., “Encapsulation of flavors using cyclodextrins: comparison of flavor retention in alpha, beta, and gamma types,” Journal of Food Science, 67(9), pp. 3271-3279 (2002), the complete disclosure of which is hereby incorporated by reference for all purposes."}, "[3]": {"test": "Association constants by capillary electrophoresis", "assay_type": "binding", "settings": "for Association constant, α-Cyclodextrin / Association constant, β-Cyclodextrin / Association constant, γ-Cyclodextrin: aqueous system, mean of three parallel determinations", "method": "The association or binding constants of several selected weak complex-forming guest molecules with alpha-, beta- and gamma-cyclodextrins were experimentally determined. Capillary electrophoresis was utilized to determine the complex binding constants of selected dietary supplements thiamine, niacin and L-arginine in aqueous systems. The following values were determined:\nSimilarly, capillary electrophoresis was utilized to determine the complex binding constants of selected flavorants ethyl acetate, isoamyl acetate, diacetyl, and N,N-dimethyl formamide with alpha-, beta- and gamma-cyclodextrins."}, "[4]": {"test": "Apparent binding constant determined by chromatography", "settings": "in water at 25° C.", "method": "Also, the apparent binding constant of the alpha-cyclodextrin N-tert-butyl-hydroxylamine complex was determined by chromatography."}, "[5]": {"test": "Laser light scattering particle size distribution of dissolved alpha-cyclodextrin (aggregation)", "assay_type": "physicochemical", "source_text": "These solutions were then subjected to laser light scattering to determine the distribution of particle sizes in each solution. […] Cyclodextrin molecules in a less aggregated form likely include more available binding sites for complex formation. This experiment thus provides evidence that is consistent with the conclusion that carbonation allows for the availability of more cyclodextrin binding sites for forming complexes with fats."}, "[6]": {"test": "Fat binding by a mixture of alpha-, beta- and gamma-cyclodextrins in water (precipitated inclusion complex)", "settings": "0.01M each cyclodextrin and palmitic acid, 4 hours, ambient temperature", "source_text": "This reaction mixture was stirred for four hours at ambient temperature. […] The precipitate was removed by centrifugation."}, "[7]": {"settings": "cited from earlier work"}, "HepG2 cells": {"test_system": "HepG2 cells", "settings": "cited from earlier work"}}, "note": "Where a name gives a salt, the structure may show the parent alone."}
{"smiles": "O=C(O)C1=C/C(=C/C=[N+]2/c3cc(O)c(OC4OC(CO)[C@@H](O)C(O)C4O)cc3CC2C(=O)[O-])CC(C(=O)O)N1", "note": "(stereo in doubt) [betanin]", "values": [{"measurement": "binding constant Kass", "setting": "[1]", "value": "85 to 105", "unit": "M⁻¹"}]}
{"smiles": "CCCCCOC(C)=O", "note": "[Amyl acetate]", "values": [{"measurement": "Calculated Binding Constants, complex formed with alpha-cyclodextrin", "setting": "[2]", "value": 85, "unit": "M⁻¹"}, {"measurement": "Calculated Binding Constants, complex formed with beta-cyclodextrin", "setting": "[2]", "value": 40, "unit": "M⁻¹"}]}
{"smiles": "CCCCOC(C)=O", "note": "[Butyl acetate]", "values": [{"measurement": "Calculated Binding Constants, complex formed with alpha-cyclodextrin", "setting": "[2]", "value": 72, "unit": "M⁻¹"}, {"measurement": "Calculated Binding Constants, complex formed with beta-cyclodextrin", "setting": "[2]", "value": 85, "unit": "M⁻¹"}]}
{"smiles": "CCOC(C)=O", "note": "[Ethyl acetate]", "values": [{"measurement": "Calculated Binding Constants, complex formed with alpha-cyclodextrin", "setting": "[2]", "value": 60, "unit": "M⁻¹"}, {"measurement": "Calculated Binding Constants, complex formed with beta-cyclodextrin", "setting": "[2]", "value": 100, "unit": "M⁻¹"}, {"measurement": "Association constant K, α-Cyclodextrin", "setting": "[3]", "value": 37, "unit": "M⁻¹"}, {"measurement": "Association constant K, β-Cyclodextrin", "setting": "[3]", "value": 10, "unit": "M⁻¹"}, {"measurement": "Association constant K, γ-Cyclodextrin", "setting": "[3]", "value": 9, "unit": "M⁻¹"}]}
{"smiles": "N=C(N)NCCC[C@H](N)C(=O)O", "note": "[L-arginine]", "values": [{"measurement": "Association constant, α-Cyclodextrin", "setting": "[3]", "value": "21 ± 2"}, {"measurement": "Association constant, β-Cyclodextrin", "setting": "[3]", "value": "100 ± 5"}, {"measurement": "Association constant, γ-Cyclodextrin", "setting": "[3]", "value": "9 ± 2"}]}
{"smiles": "CC(C)(C)NO", "note": "[N-tert-butyl-hydroxylamine]", "values": [{"measurement": "apparent binding constant", "setting": "[4]", "value": "80 to 105", "unit": "M⁻¹"}]}
{"smiles": "O=C(O)c1cccnc1", "note": "[Nicotinic acid]", "values": [{"measurement": "Association constant, α-Cyclodextrin", "setting": "[3]", "value": "17 ± 2"}, {"measurement": "Association constant, β-Cyclodextrin", "setting": "[3]", "value": "37 ± 3"}, {"measurement": "Association constant, γ-Cyclodextrin", "setting": "[3]", "value": "10 ± 2"}]}
{"smiles": "Cc1ncc(C[n+]2csc(CCO)c2C)c(N)n1", "note": "[Thiamine HCl]", "values": [{"measurement": "Association constant, α-Cyclodextrin", "setting": "[3]", "value": "20 ± 2"}, {"measurement": "Association constant, β-Cyclodextrin", "setting": "[3]", "value": "73 ± 3"}, {"measurement": "Association constant, γ-Cyclodextrin", "setting": "[3]", "value": "8 ± 1"}]}
{"smiles": "C=CCOC(=O)CCC", "note": "[allyl butyrate]", "values": [{"measurement": "Calculated Binding Constants, complex formed with alpha-cyclodextrin", "setting": "[2]", "value": 45, "unit": "M⁻¹"}, {"measurement": "Calculated Binding Constants, complex formed with beta-cyclodextrin", "setting": "[2]", "value": 34, "unit": "M⁻¹"}]}
{"smiles": "OC[C@H]1O[C@@H]2O[C@H]3[C@H](O)[C@@H](O)[C@@H](O[C@H]4[C@H](O)[C@@H](O)[C@@H](O[C@H]5[C@H](O)[C@@H](O)[C@@H](O[C@H]6[C@H](O)[C@@H](O)[C@@H](O[C@H]7[C@H](O)[C@@H](O)[C@@H](O[C@H]1[C@H](O)[C@H]2O)O[C@@H]7CO)O[C@@H]6CO)O[C@@H]5CO)O[C@@H]4CO)O[C@@H]3CO", "note": "[alpha-cyclodextrin]", "values": [{"measurement": "particle size of cyclodextrin particles", "setting": "[5]; 2% w/v in carbonated water", "value": "< 500", "unit": "nm"}, {"measurement": "particle size of the majority of cyclodextrin particles", "setting": "[5]; 2% w/v in non-carbonated tap water", "value": "~1,000 nm"}, {"measurement": "share of the cyclodextrin/palmitic acid complex in the precipitated complex", "setting": "[6]", "value": "about 78%"}]}
{"smiles": "CCCCCOC(=O)CCCC", "note": "[amyl valerate]", "values": [{"measurement": "Calculated Binding Constants, complex formed with alpha-cyclodextrin", "setting": "[2]", "value": 67, "unit": "M⁻¹"}, {"measurement": "Calculated Binding Constants, complex formed with beta-cyclodextrin", "setting": "[2]", "value": 45, "unit": "M⁻¹"}]}
{"smiles": "CCCCOC(=O)CC(C)C", "note": "[butyl isovalerate]", "values": [{"measurement": "Calculated Binding Constants, complex formed with alpha-cyclodextrin", "setting": "[2]", "value": 95, "unit": "M⁻¹"}, {"measurement": "Calculated Binding Constants, complex formed with beta-cyclodextrin", "setting": "[2]", "value": 110, "unit": "M⁻¹"}]}
{"smiles": "CN(CC(=O)O)C(=N)N", "note": "[creatine]", "values": [{"measurement": "intelligence", "setting": "[7]; diet supplementation, compared with placebo", "value": "significantly increased intelligence"}, {"measurement": "cognitive ability", "setting": "[7]; elderly", "value": "improved cognitive ability"}]}
{"smiles": "CC(=O)C(C)=O", "note": "[diacetyl]", "values": [{"measurement": "Association constant K, α-Cyclodextrin", "setting": "[3]", "value": 28, "unit": "M⁻¹"}, {"measurement": "Association constant K, β-Cyclodextrin", "setting": "[3]", "value": 43, "unit": "M⁻¹"}, {"measurement": "Association constant K, γ-Cyclodextrin", "setting": "[3]", "value": 58, "unit": "M⁻¹"}]}
{"smiles": "CCCCC(=O)OCC", "note": "[ethyl valerate]", "values": [{"measurement": "Calculated Binding Constants, complex formed with alpha-cyclodextrin", "setting": "[2]", "value": 46, "unit": "M⁻¹"}, {"measurement": "Calculated Binding Constants, complex formed with beta-cyclodextrin", "setting": "[2]", "value": 80, "unit": "M⁻¹"}]}
{"smiles": "OC[C@H]1O[C@@H]2O[C@H]3[C@H](O)[C@@H](O)[C@@H](O[C@H]4[C@H](O)[C@@H](O)[C@@H](O[C@H]5[C@H](O)[C@@H](O)[C@@H](O[C@H]6[C@H](O)[C@@H](O)[C@@H](O[C@H]7[C@H](O)[C@@H](O)[C@@H](O[C@H]8[C@H](O)[C@@H](O)[C@@H](O[C@H]9[C@H](O)[C@@H](O)[C@@H](O[C@H]1[C@H](O)[C@H]2O)O[C@@H]9CO)O[C@@H]8CO)O[C@@H]7CO)O[C@@H]6CO)O[C@@H]5CO)O[C@@H]4CO)O[C@@H]3CO", "note": "[gamma-cyclodextrin]", "values": [{"measurement": "share of the cyclodextrin/palmitic acid complex in the precipitated complex", "setting": "[6]", "value": "undetectable amounts"}]}
{"smiles": "CC(=O)OCCC(C)C", "note": "[isoamyl acetate]", "values": [{"measurement": "Association constant K, α-Cyclodextrin", "setting": "[3]", "value": 729, "unit": "M⁻¹"}, {"measurement": "Association constant K, β-Cyclodextrin", "setting": "[3]", "value": 382, "unit": "M⁻¹"}, {"measurement": "Association constant K, γ-Cyclodextrin", "setting": "[3]", "value": 32, "unit": "M⁻¹"}]}
{"smiles": "Cc1occc(=O)c1O", "note": "[maltol]", "values": [{"measurement": "Calculated Binding Constants, complex formed with alpha-cyclodextrin", "setting": "[2]", "value": 70, "unit": "M⁻¹"}, {"measurement": "Calculated Binding Constants, complex formed with beta-cyclodextrin", "setting": "[2]", "value": 98, "unit": "M⁻¹"}]}
{"smiles": "NCCS(=O)(=O)O", "note": "[taurine]", "values": [{"measurement": "secretion of apolipoprotein and lipids", "setting": "HepG2 cells", "value": "reduce the secretion of apolipoprotein 8100 and lipids"}]}
